Source: patent US9730940B2, “Purine inhibitors of human phosphatidylinositol 3-kinase delta” (priority 2012, dated 2017)

The molecules below were run against PI3K-alpha (Homo sapiens (Human), UniProt P42336) (assay: HTRF PI3K biochemical assay, alpha isoform). Conditions: ratio PI3K-alpha IC50 value/PI3K-delta IC50 value.
PI3K-alpha, sequence (P42336 whole entry, looked up, canonical isoform): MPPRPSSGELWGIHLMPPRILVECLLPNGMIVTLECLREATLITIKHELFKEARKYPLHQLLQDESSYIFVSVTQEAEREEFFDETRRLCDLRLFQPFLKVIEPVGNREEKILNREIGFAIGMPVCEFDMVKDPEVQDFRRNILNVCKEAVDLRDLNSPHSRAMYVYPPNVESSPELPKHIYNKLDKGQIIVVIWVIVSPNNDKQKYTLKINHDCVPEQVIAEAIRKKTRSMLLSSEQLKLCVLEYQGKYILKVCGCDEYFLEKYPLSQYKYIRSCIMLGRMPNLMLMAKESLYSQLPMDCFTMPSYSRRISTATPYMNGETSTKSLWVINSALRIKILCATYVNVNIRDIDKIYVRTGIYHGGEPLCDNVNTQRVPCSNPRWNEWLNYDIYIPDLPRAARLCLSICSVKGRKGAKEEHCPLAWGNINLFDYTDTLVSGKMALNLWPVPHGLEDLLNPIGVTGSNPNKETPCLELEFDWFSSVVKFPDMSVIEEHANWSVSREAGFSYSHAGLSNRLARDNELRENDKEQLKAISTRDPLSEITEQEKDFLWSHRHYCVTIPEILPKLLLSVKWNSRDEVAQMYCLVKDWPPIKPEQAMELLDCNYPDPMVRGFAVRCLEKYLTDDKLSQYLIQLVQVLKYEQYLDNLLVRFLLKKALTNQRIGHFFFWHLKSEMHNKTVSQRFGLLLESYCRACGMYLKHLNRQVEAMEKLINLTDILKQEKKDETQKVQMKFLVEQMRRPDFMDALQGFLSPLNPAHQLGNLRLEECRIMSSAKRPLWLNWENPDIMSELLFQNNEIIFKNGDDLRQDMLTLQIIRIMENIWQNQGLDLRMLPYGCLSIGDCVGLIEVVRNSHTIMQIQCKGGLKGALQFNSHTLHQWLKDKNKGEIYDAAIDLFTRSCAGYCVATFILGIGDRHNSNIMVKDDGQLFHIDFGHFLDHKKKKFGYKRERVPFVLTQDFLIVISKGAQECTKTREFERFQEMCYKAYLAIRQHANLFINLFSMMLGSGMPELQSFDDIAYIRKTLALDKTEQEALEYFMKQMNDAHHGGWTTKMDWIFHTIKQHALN
PI3K-alpha, sequence (P27986 whole entry partner, looked up, canonical isoform): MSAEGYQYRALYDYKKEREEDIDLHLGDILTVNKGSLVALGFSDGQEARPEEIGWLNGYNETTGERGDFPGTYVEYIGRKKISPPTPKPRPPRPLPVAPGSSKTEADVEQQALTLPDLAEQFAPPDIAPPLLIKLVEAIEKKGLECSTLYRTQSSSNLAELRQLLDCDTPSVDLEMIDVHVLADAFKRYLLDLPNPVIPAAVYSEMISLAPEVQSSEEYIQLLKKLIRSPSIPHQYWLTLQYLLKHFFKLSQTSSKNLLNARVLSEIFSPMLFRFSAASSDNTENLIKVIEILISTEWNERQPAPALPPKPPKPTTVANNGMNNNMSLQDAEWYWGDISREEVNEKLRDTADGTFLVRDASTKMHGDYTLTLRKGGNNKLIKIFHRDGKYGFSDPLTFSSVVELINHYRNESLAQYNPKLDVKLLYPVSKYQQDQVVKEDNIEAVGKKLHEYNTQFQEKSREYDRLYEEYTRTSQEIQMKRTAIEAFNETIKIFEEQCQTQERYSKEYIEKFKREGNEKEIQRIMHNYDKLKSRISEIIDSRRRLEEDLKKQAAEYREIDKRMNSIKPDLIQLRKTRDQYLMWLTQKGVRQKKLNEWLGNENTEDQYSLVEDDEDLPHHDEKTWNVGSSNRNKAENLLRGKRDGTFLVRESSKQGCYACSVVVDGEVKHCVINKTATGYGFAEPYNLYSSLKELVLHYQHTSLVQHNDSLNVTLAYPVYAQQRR
`CCn1c(-c2cnc(C)nc2)nc2c(O[C@H]3CCN(c4ccc(F)cc4)C3)ncnc21` [Compound 7-20, 9-ethyl-6-{[(3S)-1-(4-fluorophenyl)pyrrolidin-3-yl]oxy}-8-(2-methylpyrimidin-5-yl)-9H-purine] was tested, and the “Relative Selectivity versus PI3Kalpha” value was over 10.
In the case of `CCn1c(-c2cnc(C)nc2)nc2c(O[C@H]3CCN(c4cccc(F)c4)C3)ncnc21` [Compound 7-21, 9-ethyl-6-{[(3S)-1-(3-fluorophenyl)pyrrolidin-3-yl]oxy}-8-(2-methylpyrimidin-5-yl)-9H-purine], the “Relative Selectivity versus PI3Kalpha” value is reported as over 10.
`CCn1c(-c2cnc(C)nc2)nc2c(O[C@H]3CCN(c4nccs4)C3)ncnc21` [Compound 7-22, 9-ethyl-8-(2-methylpyrimidin-5-yl)-6-{[(3S)-1-(1,3-thiazol-2-yl)pyrrolidin-3-yl]oxy}-9H-purine] was tested, and the “Relative Selectivity versus PI3Kalpha” value was over 10.
For `CCn1c(-c2cnc(C)nc2)nc2c(O[C@H]3CCN(c4cncnc4)C3)ncnc21` [Compound 7-23, 9-ethyl-8-(2-methylpyrimidin-5-yl)-6-{[(3S)-1-pyrimidin-5-ylpyrrolidin-3-yl]oxy}-9H-purine], the “Relative Selectivity versus PI3Kalpha” value was over 10.
For `CCn1c(-c2cnc(C)nc2)nc2c(O[C@H]3CCN(c4cccnc4)C3)ncnc21` [Compound 7-24, 9-ethyl-8-(2-methylpyrimidin-5-yl)-6-{[(3S)-1-pyridin-3-ylprrolidin-3-yl]oxy}-9H-purine], the “Relative Selectivity versus PI3Kalpha” value was over 10.
`CCn1c(-c2cnc(C)nc2)nc2c(O[C@H]3CCN(c4ccc5cnoc5c4)C3)ncnc21` [Compound 7-25, 6-{[(3S)-1-(1,2-benzisoxazol-6-yl)pyrrolidin-3-yl]oxy}-9-ethyl-8-(2-methylpyrimidin-5-yl)-9H-purine] was tested, and the “Relative Selectivity versus PI3Kalpha” value was over 10.
`CCn1c(-c2cnc(C)nc2)nc2c(O[C@H]3CCN(c4cnccn4)C3)ncnc21` [Compound 7-26, 9-ethyl-8-(2-methylpyrimidin-5-yl)-6-{[(3S)-1-pyrazin-2-ylpyrrolidin-3-yl]oxy}-9H-purine] was tested, and the “Relative Selectivity versus PI3Kalpha” value was over 10.
`CCn1c(-c2cnc(C)nc2)nc2c(O[C@H]3CCCN(c4ccccn4)C3)ncnc21` [Compound 7-27, 9-ethyl-8-(2-methylpyrimidin-5-yl)-6-{[(3S)-1-pyridin-2-ylpiperidin-3-yl]oxy}-9H-purine] was tested, and the “Relative Selectivity versus PI3Kalpha” value was over 10.
In the case of `CCn1ncc(-c2nc3c(OC4CCC(C(=O)N5CCOCC5)C4)ncnc3n2C)c1C` (stereo not shown) [Compound 8-1], the “Relative Selectivity versus PI3Kalpha” value is reported as 9.
With `CCn1ncc(-c2nc3c(OC4CCC(NC(=O)C5CCOCC5)C4)ncnc3n2C)c1C` [Compound 9-3, cis-N-[(1S,3R)-3-{[8-(1-ethyl-5-methyl-1H-pyrazol-4-yl)-9-methyl-9H-purin-6-yl]oxy}cyclopentyl]tetrahydro-2H-pyran-4-carboxamide] the “Relative Selectivity versus PI3Kalpha” value was 8.
For `CCn1c(-c2cnc(C)nc2)nc2c(O[C@H]3C[C@@H](NC(=O)OC(C)(C)C)C3)ncnc21` [Compound 9-5, tert-butyl (cis-3-{[9-ethyl-8-(2-methylpyrimidin-5-yl)-9H-purin-6-yl]oxy}cyclobutyl)carbamate], the “Relative Selectivity versus PI3Kalpha” value was over 10.
With `CCn1c(-c2cnc(C)nc2)nc2c(O[C@H]3C[C@H](NC(=O)OC(C)(C)C)C3)ncnc21` [Compound 9-6, tert-butyl (trans-3-{[9-ethyl-8-(2-methylpyrimidin-5-yl)-9H-purin-6-yl]oxy}cyclobutyl)carbamate] the “Relative Selectivity versus PI3Kalpha” value was over 10.
With `CCC(=O)N[C@H]1CC[C@H](Oc2ncnc3c2nc(-c2cnc(C)nc2)n3CC)CC1` [Compound 9-7, N-(trans-4-{[9-ethyl-8-(2-methylpyrimidin-5-yl)-9H-purin-6-yl]oxy}cyclohexyl)propanamide] the “Relative Selectivity versus PI3Kalpha” value was over 10.
In the case of `CCn1c(-c2cnc(C)nc2)nc2c(O[C@H]3CC[C@@H](NC(=O)C4CC4)CC3)ncnc21` [Compound 9-8, N-(cis-4-{[9-ethyl-8-(2-methylpyrimidin-5-yl)-9H-purin-6-yl]oxy}cyclohexyl)cyclopropane carboxamide], the “Relative Selectivity versus PI3Kalpha” value is reported as over 10.
`CCn1c(-c2cnc(C)nc2)nc2c(O[C@H]3C[C@H](NS(=O)(=O)CC)C3)ncnc21` [Compound 9-10, trans-N-(3-{[9-ethyl-8-(2-methylpyrimidin-5-yl)-9H-purin-6-yl]oxy}cyclobutyl) ethanesulfonamide] was tested, and the “Relative Selectivity versus PI3Kalpha” value was over 10.
For `CCn1ncc(-c2nc3c(S[C@H]4CCN(C(=O)OC(C)(C)C)C4)ncnc3n2C)c1C` [Compound 10-1, (S)-tert-butyl 3-((8-(1-ethyl-5-methyl-1H-pyrazol-4-yl)-9-methyl-9H-purin-6-yl)thio)pyrrolidine-1-carboxylate], the “Relative Selectivity versus PI3Kalpha” value was over 10.
`CCn1ncc(-c2nc3c(S(=O)(=O)[C@H]4CCN(C(=O)OC(C)(C)C)C4)ncnc3n2C)c1C` [Compound 10-2, (S)-tert-butyl 3-((8-(1-ethyl-5-methyl-1H-pyrazol-4-yl)-9-methyl-9H-purin-6-yl)sulfonyl)pyrrolidine-1-carboxylate] was tested, and the “Relative Selectivity versus PI3Kalpha” value was 8.
In the case of `CCn1ncc(-c2nc3c(S[C@H]4CCN(C(=O)C5CCOCC5)C4)ncnc3n2C)c1C` [Compound 10-3, (S)-(3-((8-(1-ethyl-5-methyl-1H-pyrazol-4-yl)-9-methyl-9H-purin-6-yl)thio)pyrrolidin-1-yl)(tetrahydro-2H-pyran-4-yl)methanone], the “Relative Selectivity versus PI3Kalpha” value is reported as over 10.
For `CCC(=O)N1CC[C@H](Sc2ncnc3c2nc(-c2cnn(CC)c2C)n3C)C1` [Compound 10-4, (S)-1-(3-((8-(1-ethyl-5-methyl-1H-pyrazol-4-yl)-9-methyl-9H-purin-6-yl)thio)pyrrolidin-1-yl)propan-1-one], the “Relative Selectivity versus PI3Kalpha” value was over 10.
For `CCn1ncc(-c2nc3c(S(=O)(=O)[C@H]4CCN(C(=O)C5CCOCC5)C4)ncnc3n2C)c1C` [Compound 10-5, (S)-(3-((8-(1-ethyl-5-methyl-1H-pyrazol-4-yl)-9-methyl-9H-purin-6-yl)sulfonyl)pyrrolidin-1-yl)(tetrahydro-2H-pyran-4-yl)methanone], the “Relative Selectivity versus PI3Kalpha” value was 5.
`CCC(=O)N1CC[C@H](S(=O)(=O)c2ncnc3c2nc(-c2cnn(CC)c2C)n3C)C1` [Compound 10-6, (S)-1-(3-((8-(1-ethyl-5-methyl-1H-pyrazol-4-yl)-9-methyl-9H-purin-6-yl)sulfonyl)pyrrolidin-1-yl)propan-1-one] was tested, and the “Relative Selectivity versus PI3Kalpha” value was 5.
With `CCn1ncc(-c2nc3c(S[C@H]4CCN(C(=O)C5CC5)C4)ncnc3n2C)c1C` [Compound 10-7, (S)-cyclopropyl(3-((8-(1-ethyl-5-methyl-1H-pyrazol-4-yl)-9-methyl-9H-purin-6-yl)thio)pyrrolidin-1-yl)methanone] the “Relative Selectivity versus PI3Kalpha” value was over 10.
With `CCOC(=O)N1CC[C@H](Sc2ncnc3c2nc(-c2cnn(CC)c2C)n3C)C1` [Compound 10-8, (S)-ethyl 3-((8-(1-ethyl-5-methyl-1H-pyrazol-4-yl)-9-methyl-9H-purin-6-yl)thio)pyrrolidine-1-carboxylate] the “Relative Selectivity versus PI3Kalpha” value was over 10.
In the case of `CCn1ncc(-c2nc3c(S[C@H]4CCN(C(=O)OCC(C)C)C4)ncnc3n2C)c1C` [Compound 10-9, (S)-isobutyl 3-((8-(1-ethyl-5-methyl-1H-pyrazol-4-yl)-9-methyl-9H-purin-6-yl)thio)pyrrolidine-1-carboxylate], the “Relative Selectivity versus PI3Kalpha” value is reported as over 10.
With `CCn1ncc(-c2nc3c(S[C@H]4CCN(C(=O)c5ccn(C)n5)C4)ncnc3n2C)c1C` [Compound 10-10, (S)-(3-((8-(1-ethyl-5-methyl-1H-pyrazol-4-yl)-9-methyl-9H-purin-6-yl)thio)pyrrolidin-1-yl)(1-methyl-1H-pyrazol-3-yl)methanone] the “Relative Selectivity versus PI3Kalpha” value was over 10.
In the case of `CCn1ncc(-c2nc3c(S[C@H]4CCN(C(=O)c5coc(C)n5)C4)ncnc3n2C)c1C` [Compound 10-11, (S)-(3-((8-(1-ethyl-5-methyl-1H-pyrazol-4-yl)-9-methyl-9H-purin-6-yl)thio)pyrrolidin-1-yl)(2-methyloxazol-4-yl)methanone], the “Relative Selectivity versus PI3Kalpha” value is reported as over 10.
With `CCn1ncc(-c2nc3c(S[C@H]4CCN(c5ccncn5)C4)ncnc3n2C)c1C` [Compound 10-12, (S)-8-(1-ethyl-5-methyl-1H-pyrazol-4-yl)-9-methyl-6-((1-(pyrimidin-4-yl)pyrrolidin-3-yl)thio)-9H-purine] the “Relative Selectivity versus PI3Kalpha” value was over 10.
In the case of `CCn1ncc(-c2nc3c(S[C@H]4CCN(c5ncnc6sccc56)C4)ncnc3n2C)c1C` [Compound 10-13, (S)-4-(3-((8-(1-ethyl-5-methyl-1H-pyrazol-4-yl)-9-methyl-9H-purin-6-yl)thio)pyrrolidin-1-yl)thieno[2,3-d]pyrimidine], the “Relative Selectivity versus PI3Kalpha” value is reported as over 10.
For `CCn1ncc(-c2nc3c(CC4CCN(C(=O)OC(C)(C)C)C4)ncnc3n2C)c1C` (stereo not shown) [Compound 11-1, tert-butyl 3-((8-(1-ethyl-5-methyl-1H-pyrazol-4-yl)-9-methyl-9H-purin-6-yl)methyl)pyrrolidine-1-carboxylate], the “Relative Selectivity versus PI3Kalpha” value was over 10.
With `CCn1ncc(-c2nc3c(CC4CCN(C(=O)C5CCOCC5)C4)ncnc3n2C)c1C` (stereo not shown) [Compound 11-2, (3-((8-(1-ethyl-5-methyl-1H-pyrazol-4-yl)-9-methyl-9H-purin-6-yl)methyl)pyrrolidin-1-yl)(tetrahydro-2H-pyran-4-yl)methanone] the “Relative Selectivity versus PI3Kalpha” value was over 10.
`CCC(=O)N1CCC(Cc2ncnc3c2nc(-c2cnn(CC)c2C)n3C)C1` (stereo not shown) [Compound 11-3, 1-(3-((8-(1-ethyl-5-methyl-1H-pyrazol-4-yl)-9-methyl-9H-purin-6-yl)methyl)pyrrolidin-1-yl)propan-1-one] was tested, and the “Relative Selectivity versus PI3Kalpha” value was over 10.
With `CCC(=O)N1CC[C@H](Oc2ncnc3c2nc(Oc2cccc(C)c2C)n3C)C1` [Compound 12-1, 8-(2,3-dimethylphenoxy)-9-methyl-6-{[(3S)-1-propanoylpyrrolidin-3-yl]oxy}-9H-purine] the “Relative Selectivity versus PI3Kalpha” value was 4.
In the case of `CCC(=O)N1CC[C@H](Oc2ncnc3c2nc(Oc2cc(F)cc(OC)c2)n3C)C1` [Compound 12-2, 8-(3-fluoro-5-methoxyphenoxy)-9-methyl-6-{[(3S)-1-propanoylpyrrolidin-3-yl]oxy}-9H-purine], the “Relative Selectivity versus PI3Kalpha” value is reported as over 10.
For `CCC(=O)N1CC[C@H](Oc2ncnc3c2nc(Oc2cnc(C)nc2)n3C)C1` [Compound 12-3, 9-methyl-8-[(2-methylpyrimidin-5-yl)oxy]-6-{[(3S)-1-propanoylpyrrolidin-3-yl]oxy}-9H-purine], the “Relative Selectivity versus PI3Kalpha” value was over 10.
